In US9388148B2, “Acylaminocycloalkyl compounds suitable for treating disorders that respond to modulation of dopamine D3 receptor” (AbbVie Deutschland GmbH & Co. KG, priority 2013, dated 2016):

What was measured:
[1] = Determination of the microsomal half-life / microsomal clearance; assay type: in vitro ADME; conditions: pH 7.4; human liver microsomes, 0.5 μM test substance, 0.25 mg protein/ml, NADPH, 37° C.; read-out: Human mCl (mikrosomal clearance)
Protocol: The metabolic stability of the compounds of the invention was determined in the following assay.
The test substances were incubated in a concentration of 0.5 μM as follows:
0.5 μM test substance are preincubated together with liver microsomes from different species (from rat, human or other species) (0.25 mg of microsomal protein/ml) in 0.05 M potassium phosphate buffer of pH 7.4 in microtiter plates at 37° C. for 5 min. The reaction is started by adding NADPH (1 mg/mL). After 0, 5, 10, 15, 20 and 30 min, 50 μl aliquots are removed, and the reaction is immediately stopped and cooled with the same volume of acetonitrile. The samples are frozen until analyzed. The remaining concentration of undegraded test substance is determined by MSMS. The half-life (T1/2) is determined from the gradient of the signal of test substance/unit time plot, it being possible to calculate the half-life of the test substance, assuming first order kinetics, from the decrease in the concentration of the compound with time. The microsomal clearance (mC1) is calculated from mC1=1n2/T1/2/(content of microsomal protein in mg/ml)×1000 [ml/min/mg] (modified from references: Di, The Society for Biomoleculur Screening, 2003, 453-462; Obach, DMD, 1999 vol 27. N 11, 1350-1359).

[2] = biological target: T1, human dopamine D2L receptors (long isoform) (Homo sapiens, UniProt P14416); assay: Dopamine D2L receptor binding ([125I]iodospiperone displacement); conditions: selectivity ratio, human D2L vs human D3 binding
T1 construct: expressed in transfected cells; host or cells: HEK-293
T1 sequence (P14416 whole entry, canonical isoform): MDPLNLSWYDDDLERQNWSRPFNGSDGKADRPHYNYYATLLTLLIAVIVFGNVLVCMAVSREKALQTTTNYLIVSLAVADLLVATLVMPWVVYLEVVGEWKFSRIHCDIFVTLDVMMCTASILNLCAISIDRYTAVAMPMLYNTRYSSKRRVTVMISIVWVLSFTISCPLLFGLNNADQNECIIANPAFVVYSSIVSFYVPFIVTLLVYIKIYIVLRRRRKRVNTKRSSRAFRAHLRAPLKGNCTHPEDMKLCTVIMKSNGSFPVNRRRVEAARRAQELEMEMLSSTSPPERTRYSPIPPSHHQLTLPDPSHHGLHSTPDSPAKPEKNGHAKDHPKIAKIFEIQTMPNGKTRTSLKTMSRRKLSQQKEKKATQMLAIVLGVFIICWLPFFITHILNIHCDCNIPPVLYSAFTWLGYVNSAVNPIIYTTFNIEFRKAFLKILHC
Protocol: The substance to be tested was either dissolved in methanol/Chremophor® (BASF SE) or in dimethyl sulfoxide and then diluted with water to the desired concentration.
Each assay mixture was run in triplicate. • The incubation buffer contained 50 mM tris, 120 mM NaCl, 5 mM KCl, 2 mM CaCl2, 2 mM MgCl2 and 0.1% bovine serum albumin, 10 μM quinolone and 0.1% ascorbic acid (prepared fresh daily). […] Each assay mixture was run in triplicate. • The incubation buffer contained 50 mM tris, 120 mM NaCl, 5 mM KCl, 2 mM CaCl2, 2 mM MgCl2 and 0.1% bovine serum albumin. The buffer was adjusted to pH 7.4 with HCl. c) Measurement and analysis: • After having been incubated at 25° C. for 60 minutes, the assay mixtures were filtered through a Whatman GF/B glass fiber filter under vacuum using a cell col-lecting device. The filters were transferred to scintillation viols using a filter transfer system. After 4 ml of Ultima Gold® (Packard) have been added, the samples were shaken for one hour and the radioactivity was then counted in a Beta-Counter (Packard, Tricarb 2000 or 2200CA).

microsomal CLint at 0.5 μM [1] [µL/min/mg]	D2/D3, Ki (D2L)/Ki (D3) [2]	SMILES
20 to 120	+++ (+++ >50)	CC(C)(C)c1nc(C2CCCC2)cc(N2CCN(CC[C@H]3CC[C@@H](NC(=O)[C@H]4CC[C@H](O)CC4)CC3)CC2)n1 [Compound 36, trans-N-[cis-4-[2-[4-(2-tert-butyl-6-cyclopentyl-pyrimidin-4-yl)piperazin-1-yl]ethyl]cyclohexyl]-4-hydroxy-cyclohexanecarboxamide]
20 to 120	+++ (+++ >50)	CC(C)(C)c1nc(C2CCC2)cc(N2CCN(CC[C@H]3C[C@@H](NC(=O)[C@H]4CC[C@H](O)CC4)C3)CC2)n1 [Compound 10, Trans-N-[cis-3-[2-[4-(2-tert-butyl-6-cyclobutyl-pyrimidin-4-yl)piperazin-1-yl]ethyl]cyclobutyl]-4-hydroxy-cyclohexanecarboxamide]
> 120	++ (++ >20)	COCCc1cc(N2CCN(CC[C@H]3CC[C@H](NC(=O)C4CC(O)(C(F)(F)F)C4)CC3)CC2)nc(C(C)(C)C)n1 (relative stereo) [Compound 25, N-[trans-4-[2-[4-[2-tert-butyl-6-(2-methoxyethyl)pyrimidin-4-yl]piperazin-1-yl]ethyl]cyclohexyl]-3-hydroxy-3-(trifluoromethyl)cyclobutanecarboxamide]
20 to 120	+ (+ >10)	CC(C)(C)c1nc(C(F)F)cc(N2CCN(CCC3CCC(NC(=O)C4CCC(O)CC4)CC3)CC2)n1 (stereo not shown) [Compound 29, N-[4-[2-[4-[2-tert-butyl-6-(difluoromethyl)pyrimidin-4-yl]piperazin-1-yl]ethyl]cyclohexyl]-4-hydroxy-cyclohexanecarboxamide]
< 20	+++ (+++ >50)	COCCc1cc(N2CCN(CC[C@H]3CC[C@@H](NC(=O)C4CC(O)(C(F)(F)F)C4)CC3)CC2)nc(C(C)(C)C)n1 (relative stereo) [Compound 26, N-[cis-4-[2-[4-[2-tert-butyl-6-(2-methoxyethyl)pyrimidin-4-yl]piperazin-1-yl]ethyl]cyclohexyl]-3-hydroxy-3-(trifluoromethyl)cyclobutanecarboxamide]
20 to 120	+ (+ >10)	CC(C)(C)c1nc(C2CCC2)cc(N2CCN(CC[C@H]3CC[C@H](NC(=O)C4CC(O)(C(F)(F)F)C4)CC3)CC2)n1 (relative stereo) [Compound 19, N-[trans-4-[2-[4-(2-tert-butyl-6-cyclobutyl-pyrimidin-4-yl)piperazin-1-yl]ethyl]cyclohexyl]-3-hydroxy-3-(trifluoromethyl)cyclobutanecarboxamide]
20 to 120	+++ (+++ >50)	CC(C)(C)c1nc(C2CCC2)cc(N2CCN(CC[C@H]3C[C@H](NC(=O)[C@H]4CC[C@H](O)CC4)C3)CC2)n1 [Compound 9, Trans-N-[trans-3-[2-[4-(2-tert-butyl-6-cyclobutyl-pyrimidin-4-yl)piperazin-1-yl]ethyl]cyclobutyl]-4-hydroxy-cyclohexanecarboxamide]
> 120	++ (++ >20)	CC(C)(C)c1nc(C2CCC2)cc(N2CCN(CC[C@H]3C[C@H](NC(=O)[C@H]4CC[C@@H](O)CC4)C3)CC2)n1.O=C(O)C(F)(F)F [Compound 16, Cis-N-[trans-3-[2-[4-(2-tert-butyl-6-cyclobutyl-pyrimidin-4-yl)piperazin-1-yl]ethyl]cyclobutyl]-4-hydroxy-cyclohexanecarboxamide; 2,2,2-trifluoroacetic acid]
20 to 120	++ (++ >20)	CC(C)(C)c1nc(N2CCN(CC[C@H]3CC[C@@H](NC(=O)[C@H]4CC[C@H](O)CC4)CC3)CC2)cc(C2(C)CC2)n1 [Compound 28, Trans-N-[cis-4-[2-[4-[2-tert-butyl-6-(1-methylcyclopropyl)pyrimidin-4-yl]piperazin-1-yl]ethyl]cyclohexyl]-4-hydroxy-cyclohexanecarboxamide]

The next lines start with the molecule.

SMILES	microsomal CLint at 0.5 μM [1] [µL/min/mg]	D2/D3, Ki (D2L)/Ki (D3) [2]
COCc1cc(N2CCN(CC[C@H]3CC[C@H](NC(=O)[C@H]4C[C@@H](O)C4)CC3)CC2)nc(C(C)(C)C)n1 [Compound 40, cis-N-[trans-4-[2-[4-[2-tert-butyl-6-(methoxymethyl)pyrimidin-4-yl]piperazin-1-yl]ethyl]cyclohexyl]-3-hydroxy-cyclobutanecarboxamide]	20 to 120	
CC(C)(C)c1nc(N2CCN(CCC3CCC(NC(=O)C4CCC(O)CC4)CC3)CC2)cc(C2(C)CC2)n1 (stereo not shown) [Compound 27, N-[4-[2-[4-[2-tert-butyl-6-(1-methylcyclopropyl)pyrimidin-4-yl]piperazin-1-yl]ethyl]cyclohexyl]-4-hydroxy-cyclohexanecarboxamide]	20 to 120	++ (++ >20)
CC(C)(C)c1nc(C2CCC2)cc(N2CCN(CC[C@H]3CC[C@H](NC(=O)[C@H]4CC[C@H](O)CC4)CC3)CC2)n1 [Compound 1, trans-N-[trans-4-[2-[4-(2-tert-butyl-6-cyclobutyl-pyrimidin-4-yl)piperazin-1-yl]ethyl]cyclohexyl]-4-hydroxy-cyclohexanecarboxamide]	20 to 120	+++ (+++ >50)
CC(C)c1cc(N2CCN(CCC3CCC(NC(=O)C4CCC(O)CC4)CC3)CC2)nc(C(C)(C)C)n1 (stereo not shown) [Compound 31, N-[4-[2-[4-(2-tert-butyl-6-isopropyl-pyrimidin-4-yl)piperazin-1-yl]ethyl]cyclohexyl]-4-hydroxy-cyclohexanecarboxamide]	20 to 120	++ (++ >20)
COCCc1cc(N2CCN(CC[C@H]3C[C@@H](NC(=O)[C@H]4CC[C@H](O)CC4)C3)CC2)nc(C(C)(C)C)n1.O=C(O)C(F)(F)F [Compound 8, trans-N-[cis-3-[2-[4-[2-tert-butyl-6-(2-methoxyethyl)pyrimidin-4-yl]piperazin-1-yl]ethyl]cyclobutyl]-4-hydroxy-cyclohexanecarboxamide; 2,2,2-trifluoroacetic acid]	20 to 120	+++ (+++ >50)
COCCc1cc(N2CCN(CC[C@H]3C[C@H](NC(=O)[C@H]4CC[C@H](O)CC4)C3)CC2)nc(C(C)(C)C)n1.O=C(O)C(F)(F)F [Compound 7, Trans-N-[trans-3-[2-[4-[2-tert-butyl-6-(2-methoxyethyl)pyrimidin-4-yl]piperazin-1-yl]ethyl]cyclobutyl]-4-hydroxy-cyclohexanecarboxamide; 2,2,2-trifluoroacetic acid]	20 to 120	+++ (+++ >50)
COCCc1cc(N2CCN(CC[C@H]3C[C@H](NC(=O)C4CCC(O)CC4)C3)CC2)nc(C(C)(C)C)n1 (relative stereo) [Compound 11, N-[trans-3-[2-[4-[2-tert-butyl-6-(2-methoxyethyl)pyrimidin-4-yl]piperazin-1-yl]ethyl]cyclobutyl]-4-hydroxy-cyclohexanecarboxamide]	20 to 120	++ (++ >20)
CC(C)(C)c1nc(C2CCC2)cc(N2CCN(CC[C@H]3CC[C@@H](NC(=O)[C@H]4CC[C@H](O)CC4)CC3)CC2)n1 [Compound 6, trans-N-[cis-4-[2-[4-(2-tert-butyl-6-cyclobutyl-pyrimidin-4-yl)piperazin-1-yl]ethyl]cyclohexyl]-4-hydroxy-cyclohexanecarboxamide]	20 to 120	+++ (+++ >50)
COCCc1cc(N2CCN(CC[C@H]3CC[C@@H](NC(=O)[C@H]4CC[C@H](O)CC4)CC3)CC2)nc(C(C)(C)C)n1 [Compound 3, trans-N-[cis-4-[2-[4-[2-tert-butyl-6-(2-methoxyethyl)pyrimidin-4-yl]piperazin-1-yl]ethyl]cyclohexyl]-4-hydroxy-cyclohexanecarboxamide]	20 to 120	++ (++ >20)
COCCc1cc(N2CCN(CC[C@H]3CC[C@@H](NC(=O)[C@H]4CC[C@@H](O)CC4)CC3)CC2)nc(C(C)(C)C)n1 [Compound 5, Cis-N-[cis-4-[2-[4-[2-tert-butyl-6-(2-methoxyethyl)pyrimidin-4-yl]piperazin-1-yl]ethyl]cyclohexyl]-4-hydroxy-cyclohexanecarboxamide]	> 120	++ (++ >20)
